Measured values reported in EP0672658B1, “Antithrombotic agents” (priority 1994, dated 1995).
Where a name gives a salt, the structure may show the parent alone.

Experiments:
Human Thrombin = Human Thrombin (Homo sapiens, UniProt P00734); test: biochemical; settings: read-out: Kass Human Thrombin (converted)
factor Xa = factor Xa (Homo sapiens, UniProt P00742); test: biochemical; settings: read-out: Kass Xa (converted)
In short: (§1)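 Bovine trypsin and human factor Xa amidase activity measured chromogenically, following the human thrombin procedure. Substrates: N-Benzoyl-Ile-Glu-Gly-Arg-p-nitroanilide for factor Xa and N-Benzoyl-Phe-Val-Arg-p-nitroanilide for trypsin. Used for selectivity profiling.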

Trypsin = biological target: T1, Trypsin (Bos taurus, UniProt P00760); test: biochemical; parameters: species or system Bovine; settings: read-out: Kass Trypsin (converted)
T1 sequence (P00760 24-246): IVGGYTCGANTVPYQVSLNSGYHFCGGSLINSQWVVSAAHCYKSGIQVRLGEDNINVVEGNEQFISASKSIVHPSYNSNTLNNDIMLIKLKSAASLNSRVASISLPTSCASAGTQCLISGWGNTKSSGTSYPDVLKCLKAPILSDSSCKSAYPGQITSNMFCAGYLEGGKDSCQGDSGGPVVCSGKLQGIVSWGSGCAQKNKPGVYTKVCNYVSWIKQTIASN
In short: as §1

Plasmin = biological target: T2, Plasmin (Homo sapiens, UniProt P00747); test: biochemical; settings: read-out: Kass Plasmin (converted)
T2 construct: Human plasmin is purchased; purchased Boehringer Mannheim, Indianapolis, Indiana
Description: (§2) By substantially following the procedures described above for human thrombin, and using other human blood coagulation system serine proteases and proteases of the fibrinolytic system with the appropriate chromogenic substrates, identified below, selectivity of the compounds of the present invention with respect to the coagulation factor serine proteases and with respect to the fibrinolytic system serine proteases are evaluated as well as their substantial lack of interference with serine proteases of the fibrinolytic system. Thrombin inhibitors preferably should spare fibrinolysis induced by urokinase, tissue plasminogen activator (t-PA) and streptokinase. This would be important to the therapeutic use of such agents as an adjunct to streptokinase, t-PA or urokinase thrombolytic therapy and to the use of such agents as an endogenous fibrinolysis-sparing (with respect to t-PA and urokinase) antithrombotic agent. In addition to the lack of interference with the amidase activity of the fibrinolytic proteases, such fibrinolytic system sparing can be studied by the use of human plasma clots and their lysis by the respective fibrinolytic plasminogen activators.
(§3) Human plasmin is purchased from Boehringer Mannheim, Indianapolis, Indiana; nt-PA is purchased as single chain activity reference from American Diagnostica, Greenwich, Connecticut; modified-t-PA6 (mt-PA6) is prepared at Eli Lilly and Company by procedure known in the art (See, Burck, et al., J. Biol. Chem., 265, […] (1990). Plasmin chromogenic substrate H-D-Val-Leu-Lys-p-nitroanilide and tissue plasminogen activator (t-PA) substrate H-D-Ile-Pro-Arg-p-nitroanilide are purchased from Kabi Vitrum, Stockholm, Sweden.

t-PA = t-PA (Homo sapiens, UniProt P00750); test: biochemical; settings: read-out: Kass t-PA (converted)
Description: as §2, §3

human or animal plasma [1] = test: Anticoagulation determination in plasma: thrombin time (TT); type: biochemical; settings: concentration doubling thrombin time
In short: (§4)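 Compounds spiked over a concentration range into citrated human, dog or rat plasma. PT used Thromboplastin-C; APTT used Actin reagent 120 s then 0.02 M CaCl2; TT used bovine thrombin 10 NIH units/mL. Concentration doubling clotting time estimated by linear extrapolation.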

human or animal plasma [2] = test: Anticoagulation determination in plasma: activated partial thromboplastin time (APTT); type: biochemical; settings: concentration doubling activated partial thromboplastin time
In short: as §4

human or animal plasma [3] = test: Anticoagulation determination in plasma: prothrombin time (PT); type: biochemical; settings: concentration doubling prothrombin time
In short: as §4

Chain of t-PA (P00750 36-562): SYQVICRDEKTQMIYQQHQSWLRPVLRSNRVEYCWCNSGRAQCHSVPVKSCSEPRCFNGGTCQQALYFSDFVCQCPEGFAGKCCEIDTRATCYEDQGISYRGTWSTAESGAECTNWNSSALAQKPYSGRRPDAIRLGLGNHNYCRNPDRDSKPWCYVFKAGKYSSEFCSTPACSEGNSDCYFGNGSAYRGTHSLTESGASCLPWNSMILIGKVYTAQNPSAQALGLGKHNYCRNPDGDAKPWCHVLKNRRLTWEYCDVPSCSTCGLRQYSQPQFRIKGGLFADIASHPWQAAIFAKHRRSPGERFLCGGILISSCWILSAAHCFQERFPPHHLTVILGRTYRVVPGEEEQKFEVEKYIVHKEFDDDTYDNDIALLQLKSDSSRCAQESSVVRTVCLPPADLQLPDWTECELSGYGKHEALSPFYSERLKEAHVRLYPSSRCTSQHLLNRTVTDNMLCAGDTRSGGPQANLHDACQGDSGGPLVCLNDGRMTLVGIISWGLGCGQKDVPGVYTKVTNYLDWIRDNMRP
Chain of factor Xa (P00742 235-488 limits assumed): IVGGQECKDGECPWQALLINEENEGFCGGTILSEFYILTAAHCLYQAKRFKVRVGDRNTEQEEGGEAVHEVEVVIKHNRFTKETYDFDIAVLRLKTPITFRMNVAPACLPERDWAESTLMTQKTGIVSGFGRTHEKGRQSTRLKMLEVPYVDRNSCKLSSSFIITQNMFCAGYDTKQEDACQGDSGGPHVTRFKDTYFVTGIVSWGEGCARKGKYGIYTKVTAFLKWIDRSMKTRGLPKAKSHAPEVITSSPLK
Chain of factor Xa (P00742 41-179 partner limits assumed): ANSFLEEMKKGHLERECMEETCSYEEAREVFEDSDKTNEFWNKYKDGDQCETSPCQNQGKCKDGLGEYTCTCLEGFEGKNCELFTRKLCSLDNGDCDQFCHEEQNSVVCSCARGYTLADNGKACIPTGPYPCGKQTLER
T2 sequence (P00747 581-810 limits assumed): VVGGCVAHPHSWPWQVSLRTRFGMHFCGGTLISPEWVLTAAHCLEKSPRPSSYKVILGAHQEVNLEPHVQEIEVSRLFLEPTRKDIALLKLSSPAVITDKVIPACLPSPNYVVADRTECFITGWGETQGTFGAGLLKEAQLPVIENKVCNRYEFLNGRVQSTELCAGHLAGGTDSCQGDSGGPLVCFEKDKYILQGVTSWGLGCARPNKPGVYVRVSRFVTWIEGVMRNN
T2 sequence (P00747 97-580 partner limits assumed): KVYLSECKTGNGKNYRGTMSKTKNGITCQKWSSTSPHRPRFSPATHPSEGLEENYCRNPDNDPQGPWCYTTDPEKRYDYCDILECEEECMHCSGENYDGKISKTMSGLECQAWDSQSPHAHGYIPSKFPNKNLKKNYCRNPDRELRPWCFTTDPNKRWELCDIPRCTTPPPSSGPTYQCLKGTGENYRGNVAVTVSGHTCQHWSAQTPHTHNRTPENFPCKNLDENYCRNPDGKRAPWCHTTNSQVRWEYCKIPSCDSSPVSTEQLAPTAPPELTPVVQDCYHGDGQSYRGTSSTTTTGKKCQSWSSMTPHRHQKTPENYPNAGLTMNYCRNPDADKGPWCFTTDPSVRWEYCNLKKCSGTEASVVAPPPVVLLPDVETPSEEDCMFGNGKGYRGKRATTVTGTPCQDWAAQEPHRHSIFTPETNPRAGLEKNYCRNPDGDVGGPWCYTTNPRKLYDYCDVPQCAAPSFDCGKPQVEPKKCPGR

SMILES	Kd (Human Thrombin) [µM]	Kd (factor Xa) [µM]	Kd (Trypsin) [µM]	Kd (Plasmin) [µM]	Kd (t-PA) [µM]	Human Plasma Anticoagulation 2x Clotting time (ng/mL) TT (human or animal plasma [1])	Human Plasma Anticoagulation 2x Clotting time (ng/mL) APTT (human or animal plasma [2])	Human Plasma Anticoagulation 2x Clotting time (ng/mL) PT (human or animal plasma [3])
CCS(=O)(=O)N[C@H](Cc1ccccc1)C(=O)N1CCC[C@H]1C(=O)NCCCc1cccc(C(=N)N)c1 [Example 31, EtSO2-D-Phe-Pro-m-NHCH2CH2CH2-C6H4C(=NH)NH2·HCl]	14.3	7.14	20	> 1000	> 1000	10,800 ng/mL	34,500 ng/mL	30,000 ng/mL
N=C(N)c1ccc(CCCNC(=O)[C@@H]2CCCN2C(=O)[C@@H]2NCC[C@@H]3CCCC[C@@H]32)cc1 [Example 32, 1-Piq-Pro-p-NHCH2CH2CH2-C6H4C(=NH)NH2·HCl]	7.69	33.3	25	> 1000	100	3,100 ng/mL	28,500 ng/mL	47,800 ng/mL
N=C(N)c1cccc(CCCNC(=O)[C@@H]2CCCN2C(=O)[C@@H]2NCC[C@@H]3CCCC[C@@H]32)c1 [Example 33, 1-Piq-Pro-m-NHCH2CH2CH2-C6H4C(=NH)NH2·HCl]	25	25	50	> 1000	> 1000	18,900 ng/mL	59,300 ng/mL	70,900 ng/mL
CCS(=O)(=O)N[C@H](Cc1ccccc1)C(=O)N1CCC[C@H]1C(=O)NCc1ccc(NC(=N)N)cc1 [Example 34, EtSO2-D-Phe-Pro-p-NHCH2C6H4NHC(NH)NH2·HCl]	1.54	> 1000	2.04	100	100	530 ng/mL	4,900 ng/mL	5,500 ng/mL
CCS(=O)(=O)N[C@H](Cc1ccccc1)C(=O)N1CCC[C@H]1C(=O)NCCc1ccc(NC(=N)N)cc1 [Example 35, EtSO2-D-Phe-Pro-p-NHCH2CH2C6H4CNH(NH)NH2·HCl]	11.1	> 1000	25	> 1000	> 1000	4,500 ng/mL	50,400 ng/mL	78,400 ng/mL
CCS(=O)(=O)N[C@H](Cc1ccccc1)C(=O)N1CCC[C@H]1C(=O)NCc1cccc(NC(=N)N)c1 [Example 36, EtSO2-D-Phe-Pro-m-NHCH2C6H4NHC(NH)NH2·HCl]	16.7	> 1000	100	> 1000	> 1000	7,700 ng/mL	>91,000 ng/mL	>91,000 ng/mL
N=C(N)c1ccc(CNC(=O)[C@@H]2C[C@@H]3CCCC[C@@H]3N2C(=O)[C@H]2C[C@H]3CCCC[C@H]3CN2)cc1 [Example 43, D-3-Piq-cis-Ohi-p-NHCH2C6H4C(NH)NH2·2HCl]	0.714	20	0.01	3.33	100	280 ng/mL	1,100 ng/mL	930 ng/mL
